Data reported in EP4624482A1, “PYRIMIDOPYRIMIDINONE COMPOUND AND PHARMACEUTICAL COMPOSITION COMPRISING SAME” (Axceso Biopharma Co., Ltd., priority 2022, dated 2024).

How the values were obtained:
[1] = system: APP/PS/Tau transgenic mice; assay: Intestinal length in AD-induced animal model; type: in vivo; settings: 1 mg/kg intraperitoneally once every 3 days for 2 weeks
Experimental: In neurodegenerative diseases (AD and PD), the length of the intestine tends to decrease as the disease progresses, so we looked for changes in intestinal length in an AD-induced animal model.
APP/PS/Tau transgenic mice were used as an AD-induced animal model. The compound of formula (1a-1) was administered intraperitoneally once every 3 days at a concentration of 1 mg/kg to 12-week-old transgenic mice for 2 weeks, and the changes in intestinal length of the mice were measured after 1 and 4 weeks.

[2] = system: amyloid beta monomer (monomeric Aβ, mAβ); assay: mAβ expression in mouse brain of AD-induced animal model, fluorescence microscopy; type: in vivo, mice; settings: 1 mg/kg intraperitoneally once every 3 days for 2 weeks; brain sections at 1 week and 4 weeks after drug administration
Experimental: To determine the therapeutic effect on Alzheimer's Disease (AD), the effects on amyloid beta monomer (monomeric Aβ, mAβ) and Tau protein, which are biomarkers of AD, were analyzed in an AD-induced animal model.
APP/PS/Tau transgenic mice were used as an AD-induced animal model. The compound of formula (1a-1) was administered intraperitoneally once every 3 days at a concentration of 1 mg/kg to 12-week-old transgenic mice for 2 weeks, and the expression of mAβ and Tau proteins in the mouse brain was measured after 1 and 4 weeks. After anesthetizing the mouse, the cervical region was incised with a dissecting tool, and then the occipital region was incised to remove both sides of the skull. The brain was washed with phosphate buffered saline (PBS) and fixed with 4% paraformaldehyde (Sigma, St Louis, MO, USA) for 12 hours at 4°C. These were cut to a thickness of approximately 10 µm using a vibratome, and hippocampus and cortex sections were collected and placed in 24 wells. PBS was added to the wells containing the fixed tissue sections, and fluorescent nanoparticles (QD565, red fluorescence) conjugated with anti-amyloid antibodies and anti-Tau antibodies (Santa Cruz, USA) were added to each 2 µM, and reacted at 4°C for 12 hours. The expression of mAβ and Tau was confirmed by fluorescence microscopy.

SH-SY5Y cell lines = assay: Proliferation of SH-SY5Y cells (Parkinson's disease cell model), EZ-cytox; type: cell-based, human; settings: 5 days
Experimental: A medium containing DMEM/F12 (Hyclone), 10% FBS (Hyclone), and 1% penicillin-streptomycin (Hyclone) was used, and the medium was replaced every two days after seeding on a T75 plate. Subculture was performed when the cell density was 80-90%.
Then, to determine the neuronal proliferation effect, the subcultured SH-SY5Y cells were seeded in 96 wells at 5 × 10^3 cells/well. After 1 day, the medium was replaced with a 5% FBS ratio, and the cells were treated with the compound of formula (1a-1) at concentrations serially diluted 2-fold from 500 nM to 15.6 nM and cultured for 5 days. The medium was replaced with 10% FBS containing the drug every other day. The culture medium with 10% FBS was used as a control. After 5 days, the amount of living cells was measured at 450 nm absorbance using EZ-cytox (DoGen) to compare the cell viability.

[3] = system: tyrosine hydroxylase (TH); assay: TH expression in rotenone-treated differentiated SH-SY5Y dopaminergic neurons, western blot; type: cell-based, human
Experimental: To analyze the effect on the expression of tyrosine hydroxylase (TH) and α-synuclein as neuron-specific proteins, western blot was performed.
SH-SY5Y cell line was treated with retinoic acid and 12-O-tetradecanoylphorbol-13-acetate (TPA) to induce differentiation into TH-secreting neurons for 6 days.
Differentiated dopaminergic neurons were lysed in PRO-PREP (Intronbio), a cell lysis solution containing protease inhibitor cocktail (Gendepot), and electrophoresed in 10% SDS polyacrylamide gels at 20 µg/well. Transfer was performed using PVDF (Merck millipore) as a membrane, and tyrosine hydroxylase antibody, α-synuclein antibody (Cell signaling), and β-actin antibody (Santa Cruz) were used for reaction for more than 2 hours. Protein expression was detected by staining with ECL substrate (Biorad) for development and graphed using the image J program.

IL-6 = assay: Serum IL-6 after CLP treatment, ELISA; type: in vivo, mouse; settings: treated at 6 and 16 hours after CLP, serum at 18 hours
Experimental: After CLP treatment, the inflammatory cytokines TNF-α and IL-6 were analyzed by ELISA.
Specifically, after treating the compound of formula (1a-1) at 6 and 16 hours after CLP treatment, mouse blood was collected at 18 hours and allowed to stand at room temperature for 1 hour, then centrifuged at 3000 rpm for 10 minutes to obtain serum to analyze the amount of TNF-α and IL-6.

[4] = system: MYSEC (murine yolk sac endothelial cell) cell lines; assay: In vitro permeability of LPS-treated MYSEC cells (transwell, streptavidin-HRP); type: cell-based
Experimental: (§1) Permeability was measured by an in vitro method using cell culture and in vivo method using Evans blue dye. To increase permeability, LPS was used in the in vitro method and CLP treatment was used in the in vivo method.
To measure permeability by an in vitro method, MYSEC (murine yolk sac endothelial cell) cell lines were used. MYSEC cell lines were placed in the top chamber of a trans well at 2.5×10^5 cells/well and treated with 300 ng of lipopolysaccharide (LPS) derived from Gram-negative bacteria in the presence of the compound of formula (1a-1) for 24 hours. The medium in the top chamber was replaced with 300 µl of serum-free medium containing 5 µl of streptoavidin-HRP. After 5 minutes, 20 µl of the medium in the lower chamber was taken and the activity of HRP was measured as absorbance at 450 nm.
To determine the mechanism by which the compound of formula (1a-1) improves permeability, the same experiment was performed by knocking down the SIRT1 protein in the MYSEC cell line.

C57BL/6 mice = assay: In vivo permeability of mouse organs after CLP, Evans blue dye; settings: treated at 6 and 16 hours after CLP, Evans blue dye at 18 hours
Experimental: as §1
To measure permeability by an in vivo method, the compound of formula (1a-1) was treated at 6 and 16 hours after CLP treatment in the same manner as in Experimental Example 7 above, and 200 µl of a 0.5% Evans blue dye (EBD) solution was administered intravenously at 18 hours, circulated for 1 hour, and organs were harvested to visually confirm the presence of dye. The organs were then homogenized in a homogenizer to extract the dye at 55 °C for 48 hours, and permeability was determined by measuring absorbance at 620 nm.

Structure (SMILES): CCCCCCCCCCCCCC[C@H]1OP(=O)(O)O[C@H]1[C@@H](N)CO.Cl [formula (1a-1), (4S,5R)-4-((S)-1-amino-2-hydroxyethyl)-2-hydroxy-5-tetradecyl-1,3,2-dioxaphosphoran-2-oxide hydrochloride]
- length of the intestine at 4 weeks (6W) compared to 1 week (3W) after administration [1]: longer
- intestinal length ([1]; compared to untreated AD-induced control mice): increased
- red fluorescence for mAβ [2]: negligible
- proliferation of nerve cells (SH-SY5Y cell lines; 15.6 nM to 500 nM): increases with increasing concentrations
- concentration of maximum proliferative potency (SH-SY5Y cell lines): ~100 nM
- effectiveness on TH and α-synuclein expression compared with control drug [3]: more effective than resveratrol
- expression of TH decreased by rotenone ([3]; differentiated dopaminergic neurons treated with rotenone): restored
- amount of inflammatory cytokine IL-6 (IL-6): significantly decreased
- effect on LPS-induced permeability after knockdown of the SIRT1 protein ([4]; MYSEC cell line with SIRT1 knockdown, LPS): does not show the effect
- LPS-induced increased permeability ([4]; MYSEC cell line, 300 ng LPS, 24 hours): restores the LPS-induced increased permeability to normal
- amount of EBD in each organ (C57BL/6 mice): returns to normal
